For data set [1], the system named is DRG neurons (axon vs. cell body compartment). Kind of data set: Campenot chamber local axon degeneration (anti-NGF in axon compartment). Type of data set: cell-based, mouse. On the procedure: Teflon dividers (Tyler Research) were cleaned by washing in water and wiping them clean of any residual grease. Dividers were then soaked in Nochromix (Godax Laboratories)/sulfuric acid overnight, rinsed five times in distilled and autoclaved water (SQ water), boiled for 30 minutes, and then air-dried before use
Mouse laminin (5 μg/ml in sterile filtered water; Invitrogen) was added to PDL coated 35 mm dishes (BD Biosciences) and they were incubated for 1 hour at 37° C., followed by two rinses in SQ water. The dishes were vacuum-dried and then air-dried in a laminar flow hood for 15 minutes. Prepared dishes were then scored with a pin rake (Tyler Research). […] High vacuum grease (VWR) was added to each Teflon divider under a dissection scope. The laminin coated PDL dishes were inverted and dropped onto the Teflon divider, with additional pressure added by use of a toothpick in the non-track-containing regions. Dishes were incubated for 1 hour at 37° C. Five hundred microliters of NBM+MC (50 ng/ml NGF) solution was added to each of the side compartments, and a grease barrier was added in front of the center cell slot.
Free E13.5 spinal cords were dissected from mouse embryos and placed into NBM+MC (25 ng/ml NGF) solution. DRGs were detached from the spinal cord with a tungsten needle. An NBM+MC-lubricated P200 pipette was used to move DRGs into a 1.5 ml tube. DRGs were pelleted with a tabletop centrifuge for 30 seconds. The supernate was discarded and 0.05% Trypsin/EDTA (cold) was added. The pellet was resolubilized with a pipette and incubated at 37° C. for 15 minutes with constant agitation (650 RPM). The sample was again centrifuged and the supernate discarded. The pellet was resuspended in warm NBM+MC (50 ng/ml NGF) solution and triturated with a flamed glass pipette 20 times, followed by trituration with a fire-bored glass pipette another 20 times. The samples were again centrifuged and the resulting pellets were resuspended in 0.5 ml NBM+MC (50 ng/ml NGF) solution. The cells were diluted to a final concentration of 2.5×10^6 cells/ml. The cell suspensions were loaded into a 1 ml syringe with a 22 gauge needle. The center slot of the Campenot divider was filled using the syringe (to a volume of at least 50 μl). The Campenot chamber was incubated overnight at 37° C. 2.5 ml NGF+MC (50 ng/ml NGF) solution was added to the center compartment and the grease gate was removed. The outer medium (cell body compartment) was replaced after three days with 2.5 ml NBM+MC medium (with 25 ng/ml NGF). After five days in culture, one distal compartment was washed three times with warmed NBM+MC (no NGF) solution. After the third wash, 500 μl NBM+MC (no NGF) solution was added to the axon compartment in combination with either 0.5% DMSO or an inhibitor. The cell body compartment was replaced with 2.5 ml NBM+MC medium (with 25 ng/ml NGF) containing either 0.5% DMSO or inhibitor.
After 28 hours of anti-NGF antibody treatment, 8% PFA/30% sucrose solution (see above) was added directly to the culture medium at a 1:1 dilution and incubated for 30 minutes. The Teflon divider was removed after the first 15 minutes of addition. The system was washed once with 2.5 ml PBS prior to immunostaining. Neurons were blocked in 5% BSA/0.2% triton in PBS for 30 minutes. The primary antibody Tuj1 (Covance) was added to a final dilution of 1:1000 in PBS containing 2% BSA and incubated overnight at 4° C. The dish was washed once with PBS. […] The dish was washed twice with PBS, and a 22×22 mm coverslip (VWR) was added with 350 μl of fluoromount G (Electron Microscopy Sciences). The neurons were visualized by use of a fluorescence microscope.
As described above, E13.5 DRGs were isolated and grown for 5 days in a Campenot chamber.

In data set [2] the target is ErbB kinase (Homo sapiens, UniProt P04626). Conditions: protein tyrosine phosphorylation, 3T3-Her2 cells; published source; read-out: Cellular IC50; cited from earlier work.
In data set [3] the test system is cerebellar granule neurons (CGNs). The data set can be described thus: serum deprivation/KCl reduction degeneration of cerebellar granule neurons. Conditions: 5 mM KCl, 24 hours. Type of data set: cell-based, mouse.
The target of data set [4] is ErbB kinase. Conditions: read-out: Cellular IC50; heregulin induced tyrosine phosphorylation, MDA-MB-453 cells; published source; cited from earlier work.
The test system of data set [5] is dorsal root ganglion neurons. The data set can be described thus: EGF addition to DRG neurons maintained in NGF: degeneration. The conditions noted are these: 100 μg/mL EGF. Type of data set: cell-based, mouse. On the procedure:
Experiments were carried out to assess the effects of activation of EGFR by ligands, including EGF.
(§1) Dorsal Root Ganglia (DRG) immunoblots were prepared as follows. Primary cells used in the experiments were Charles River CD-1 E13 Dorsal Root Ganglia (DRG). The cells were maintained in N3/F12 (+25 ng/ml NGF) medium (Ham's F12 (23 ml), N3 supplement (1 ml), glucose (1 ml of 1 M glucose stock), 25 ng/ml Nerve Growth Factor 2.5 S, mouse (Roche 11362348001) in Ham's F12 (stock: 50 μg/ml-80° C.), which was filter-sterilized prior to use). The experiments also employed Triton lysis buffer (20 mM Tris pH 7.5, 150 mM NaCl, 0.1% Triton-X100, 100× Phosphatase inhibitor cocktail I (added fresh), 100× Phosphatase inhibitor cocktail II (added fresh), 1 tablet/10 ml Protease inhibitor tablet (added fresh)).
DRG explants were prepared on Day 0. Embryo dissections were carried out in L15 medium (dissection tools were soaked in 70% isopropanol, and dishes were set up on ice: 10 cm dishes (4 embryos per dish) and one 6 cm dish for spinal cords). E13.5 spinal cords were extracted into DMEM+10% FBS. […]
(§2) The goal of these experiments was to see if activation of EGFR by EGF would be sufficient to drive degeneration. […] To ensure that EGF is capable of activating EGFR/ErbBs in the neuronal cultures used in these assays, ERK activation was assessed (ERK is a downstream target of EGFR).

In data set [6] the test system is ERK. Kind of data set: ERK activation by EGF in DRG cultures (Western blot). The conditions noted are these: 100 μg/mL EGF; 30 minutes to 1 hour. Type of data set: cell-based, mouse. On the procedure:
as §1
DRG explants were prepared on Day 0. […]
Immunoblotting was carried out by aspiration of media with a pipette tip, washing twice with ice-cold sterile PBS, and removal of all PBS using an aspirator with a pipette tip or kimwipes. […] Quantification was carried out by choosing a background method and standard bands that minimize negative/counter-intuitive values: i.e., top/bottom, right/left, user-defined (user-defined). […]
as §2

Data set [7] concerns DRGs. Kind of data set: G-protein/GPCR inhibitors in NGF withdrawal-induced degeneration in DRGs. Type of data set: cell-based, mouse. On the procedure: The assays described herein identified several inhibitors of G-proteins and G-protein coupled receptors (GPCRs) that decrease degeneration in neurons. Experiments were performed in DRGs to verify the role of G-proteins and GPCRs in degeneration pathways. The experimental protocols used in these experiments are the same as those described in Example 14. Pertussis toxin and SCH 202676 were purchased from Tocris Bioscience.

Data set [8] can be described thus: peripheral neuropathy in patients treated with paclitaxel (adverse event analysis). Type of data set: in vivo, human. The conditions noted are these: combination with paclitaxel; first 400 patients enrolled; placebo+paclitaxel 26.4%; p=0.012 Fisher's exact. The text has this:
Tarceva® (erlotinib) is an EGFR kinase inhibitor. Treatment of patients with paclitaxel and other chemotherapeutic agents is known to lead to peripheral neuropathy (reviewed in Wilkes, Semin. Oncol. Nurs. 23(3):162-173, 2007).

The subject of data set [9] is dorsal spinal cord explants. Kind of data set: dorsal spinal cord (DSC) explant degeneration. The conditions noted are these: 3.4 μM, 11.1 μM, 33.3 μM, and 100 μM. Type of data set: cell-based.
Source text: DSCs grow out axons over a period of days, but if they are not rescued with the addition of a survival factor, they will eventually degenerate.
Data set [10] in a line: toxin-induced degeneration of sympathetic neurons (MTT assay). Type of data set: cell-based. The conditions noted are these: Sprague-Dawley, rat, primary sympathetic neurons from cervical ganglia, 24 hour camptothecin, read-out: % viability (normalized). On the procedure: Sympathetic cervical ganglia were dissected from postnatal day 1 Sprague-Dawley rats (Charles River Labs) and collected in a dish containing Ultraculture media (Lonza) with 5% fetal bovine serum (Invitrogen). Ganglia were washed twice with serum-free Ultraculture media, and a final concentration of 0.1% trypsin (Worthington) was added and incubated with the tissue at 37° C. for 30 minutes. One percent DNase (Roche) solution in PBS was added to the ganglia and incubated at room temperature for 1-2 minutes. Ganglia were washed with Ultraculture and allowed to settle to the bottom of the tube. All wash media were removed and 1 mL plating media containing Ultraculture, 5% rat serum, 1% penicillin-streptomycin, 1% glutamax, 7 μM cytosine arabinoside (Sigma), and 50 ng/mL nerve growth factor (2.5S, Cedarlane Laboratory) was added to the tube. Ganglia were dissociated by trituration using a pipet (Rainin). The cell slurry was filtered over a […] cell strainer (Falcon) and cell number was counted. Sympathetic neurons were plated at a density of 5000-7500 cells/well (96-well dish), 200,000 cells/well (6-well plate), or 100,000 cells/well (8-well chamber slide) and grown for 4-5 days in 5% CO2 at 37° C. Every other day neurons were fed with fresh plating media containing 5-10 ng/mL NGF.
NGF withdrawal assays were performed as described in Example 14A. […]
For orientation: Tetrazolium assays rely on reduction of a dye to a coloured formazan, in cell work by metabolically active cells.

Entries after “also recorded” stand apart in the source; their conditions may differ.

The text below walks through data of US20140328940A1, “MODULATION OF AXON DEGENERATION” (Genentech, Inc., priority 2009, published 2014).

A word on the IC50: it is the point on the concentration scale where inhibition reaches its midpoint. The viability is a read-out of living cells in per cent, often relative to untreated cells.

ErbB kinase (Homo sapiens, UniProt P04626), sequence (P04626 23-1255): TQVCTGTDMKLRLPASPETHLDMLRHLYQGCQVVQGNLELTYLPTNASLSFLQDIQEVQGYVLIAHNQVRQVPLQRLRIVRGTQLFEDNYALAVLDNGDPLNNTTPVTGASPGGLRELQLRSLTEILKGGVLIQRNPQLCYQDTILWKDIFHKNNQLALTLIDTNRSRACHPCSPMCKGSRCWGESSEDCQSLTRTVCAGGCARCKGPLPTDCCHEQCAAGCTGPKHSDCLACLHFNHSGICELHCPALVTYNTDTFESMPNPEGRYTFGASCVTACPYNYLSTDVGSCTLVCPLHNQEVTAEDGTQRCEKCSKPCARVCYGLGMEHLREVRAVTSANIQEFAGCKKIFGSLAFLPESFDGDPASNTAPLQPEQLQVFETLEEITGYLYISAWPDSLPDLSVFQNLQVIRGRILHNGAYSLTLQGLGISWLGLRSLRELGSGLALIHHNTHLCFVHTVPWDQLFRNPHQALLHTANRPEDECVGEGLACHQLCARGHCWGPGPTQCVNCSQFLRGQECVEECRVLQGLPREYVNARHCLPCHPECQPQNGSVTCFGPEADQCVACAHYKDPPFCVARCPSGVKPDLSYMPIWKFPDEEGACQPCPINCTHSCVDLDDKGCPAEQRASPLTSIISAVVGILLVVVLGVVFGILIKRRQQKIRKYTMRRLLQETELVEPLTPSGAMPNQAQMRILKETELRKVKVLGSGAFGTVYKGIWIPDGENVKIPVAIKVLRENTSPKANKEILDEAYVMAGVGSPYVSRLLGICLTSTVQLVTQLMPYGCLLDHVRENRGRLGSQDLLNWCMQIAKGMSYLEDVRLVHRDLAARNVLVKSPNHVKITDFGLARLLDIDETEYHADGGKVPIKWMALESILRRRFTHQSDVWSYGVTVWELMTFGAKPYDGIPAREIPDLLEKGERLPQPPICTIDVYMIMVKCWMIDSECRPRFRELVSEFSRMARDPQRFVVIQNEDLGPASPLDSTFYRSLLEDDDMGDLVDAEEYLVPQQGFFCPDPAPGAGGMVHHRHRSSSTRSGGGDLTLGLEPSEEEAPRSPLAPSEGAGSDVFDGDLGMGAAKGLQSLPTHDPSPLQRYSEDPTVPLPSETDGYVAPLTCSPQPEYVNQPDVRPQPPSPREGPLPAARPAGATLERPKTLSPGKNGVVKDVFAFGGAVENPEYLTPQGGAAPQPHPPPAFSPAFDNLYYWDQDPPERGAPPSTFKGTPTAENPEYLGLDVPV

Turning to `C=CC(=O)Nc1ccc2ncnc(Nc3cccc(Br)c3)c2c1` [PD168393], the “Axon Compartment (protection of NGF-deprived axons)” value in data set [1] (inhibitor 5 μM in axon compartment) is recorded as “Yes (1)”. Moreover, the “Cell Body Compartment (protection of NGF-deprived axons)” value in data set [1] (inhibitor 5 μM in cell body compartment) was “No (1)”. For the same molecule, in [2], the IC50 was 100 nM.

On to `N#C/C(=C\c1ccc(O)c(O)c1)C(=O)NCCCc1ccccc1` [AG555], for which the “formation of varicosities in locally NGF-deprived axons” value in data set [1] (30 μM SB415, 15 μM Act D in cell body compartment, 10 μM AG555, 30 μM SB239 in axon compartment) was “fewer varicosities”. The “Axon Compartment (protection of NGF-deprived axons)” value in data set [1] (inhibitor 10 μM in axon compartment) was “did not degenerate; also recorded: protected from local degeneration; also recorded: Yes (4)”. Besides, the “Cell Body Compartment (protection of NGF-deprived axons)” value in data set [1] (inhibitor 10 μM in cell body compartment) is on record as “failed to prevent degeneration; also recorded: No (4)”. Also, the “protection of cerebellar granule neurons from serum deprivation/KCl reduction” value in [3] (1 μM) and in data set [3] (10 μM) was “protect” throughout. Also, the IC50 in data set [4] was 5 nM.

Regarding EGF: ErbB1 ligand added to DRG neurons, the “induction of axon degeneration” value in [5] is on record as “does not cause degeneration”. Also, in data set [6], the “ERK activity (phosphorylation of ERK, Western blot)” value is on record as “increased”.

For `CN=c1nc(-c2ccccc2)n(-c2ccccc2)s1` [SCH 202676], the “NGF withdrawal-induced degeneration in DRGs” value in data set [7] (0.1 μM, 1 μM, 10 μM or 100 μM (FIGS. 49 and 50)) is recorded as “decreases”.

Take Pertussis toxin: the “degeneration in neurons following NGF withdrawal” value in data set [7] (0.01 μg/mL, 0.1 μg/mL, or 1 μg/mL (FIG. 51)) is on record as “decreases”.

Consider `C#Cc1cccc(Nc2ncnc3cc(OCCOC)c(OCCOC)cc23)c1` [Tarceva, N-(3-ethynylphenyl)-6,7-bis(2-methoxyethoxy)quinazolin-4-amine], for which, in [8], the “patients with peripheral neuropathy” value is on record as 16.3 % of patients. In data set [9], the “degeneration in dorsal spinal cord explants” value is given as “can delay; also recorded: blocks”.

In the case of `CC[C@@]1(O)C(=O)OCc2c1cc1n(c2=O)Cc2cc3ccccc3nc2-1` [camptothecin], in data set [10], the viability at 24 h is 79%.
